Reference: patent publication US4192871A, “Chemical compounds” (Glaxo Laboratories Limited, priority 1976, dated 1980)
Counter-ions that a name gives are not always drawn.

Legend:
[1] = anaesthetic activity tests (intravenous administration); assay type: in vivo; settings: compound and salts
Text: In the tests we have carried out, the compounds of the invention have been shown generally to be good anaesthetics, usually giving instantaneous induction of anaesthesia when administered intravenously. […] The compounds of the invention are of use for inducing anaesthesia which is to be maintained for example by an inhalation anaesthetic, such as ether, halothane, nitrous oxide or trichloroethylene. The compounds may also be capable of maintaining anaesthesia to a sufficient degree to enable surgical operations to be conducted without the aid of an inhalation anaesthetic, the anaesthesia being maintained if necessary by repeated or continuous administration. The compounds may have other desirable central nervous system depressant activities, for example they may be of use as sedatives.

[2] = dissolution of the 11β-aminoester salts in aqueous acid (Table 5 and Examples 101, 225-229); assay type: physicochemical
Method in brief: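 11β-Aminoester free base combined with 1 molar part of acid (citric acid as monohydrate) in water, with extra acid or prior ethanol co-evaporation in some methods. Solution made up to set weight, undissolved base collected and weighed to calculate dissolved amount. Solution pH measured.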

pH of the salt solutions = assay type: physicochemical
Method in brief: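 Aminoester free base mixed with 1 molar part acid in water, stirred or shaken, with extra acid or ethanol evaporation in some methods, then made up with water to set weight. Undissolved base collected and weighed to calculate dissolved base; solution membrane-filtered and pH measured.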

[3] = method C: ethanol evaporated, residue in water, undissolved material weighed, WT. of solution Ex. 118: 10, 120: 10.4, 148: 9.54, 152: 5.6, 154: 9.1, 155: 8.77, 156: 9.06, 157: 9.5, 158: 9.38, 159: 9.17, 179: 9.65, 180: 11.7, 182: 4.9, 202: 12.05, 213: 12, 214: 11.5, 215: 11.1, 216: 11.6, 217: 12.1 g
[4] = aqueous solution of the salt, Table 5
[5] = method A: clear solution, 1 molar part acid, made up with water to WT. of solution 10 g, except Ex. 121 and 150: 12, 123: 12.3, 124: 7.5, 129: 10.3, 135 and 139: 8.95, 164: 10.35, 170: 10.4, 181: 10.04, 187: 9.5, 210: 10.2, 221: 15 g
[6] = method D: 1 molar part acid, undissolved material weighed, WT. of solution 10 g, except Ex. 136: 8.95, 140: 9.52, 165 and 167: 10.1, 190 and 198: 9.8, 191: 8.9, 194: 6.6, 204: 10.09, 219: 10.6 g
[7] = method B: further acid added, undissolved material weighed, WT. of solution 10 g, except Ex. 130 and 141: 9.2, 142: 9.23, 143, 144, 189 and 199: 9.8, 149: 10.6, 153: 7.9, 162 and 188: 9.5, 163: 68, 166: 10.4, 168: 10.7, 169: 10.9, 183: 8.05, 184 and 201: 9.83, 185: 7.1, 186: 9.3, 192: 10.07, 193: 6.4, 195: 6.8, 196: 7, 197: 7.2, 200: 10.1, 206: 15 g

**Q.** For `CCO[C@H]1C[C@@]2(C)[C@@H](CC[C@@H]3[C@@H]2[C@@H](OC(=O)CNC(C)CC(C)C)C[C@]2(C)[C@@H](C(C)=O)CC[C@@H]32)C[C@@H]1O` (stereo partly drawn) [compound 29, 2β-ethoxy-3α-hydroxy-11β-N-1',3'-dimethylbutylaminoacetoxy-5α-pregnan-20-one], which “activity shown in our tests (preference grade)” value (“activity shown in our tests” for short) [1] is on record?
**A.** particularly preferred on account of the activity shown in our tests

**Q.** Which “activity shown in our tests” value [1] does the source give for `CCN(CC(=O)O[C@H]1C[C@]2(C)[C@@H](C(C)=O)CC[C@H]2[C@@H]2CC[C@H]3C[C@H](O)CC[C@]3(C)[C@H]21)C(C)CC(C)C` (stereo partly drawn) [compound 23, 11β-N-1',3'-dimethylbutyl-N-ethylaminoacetoxy-3α-hydroxy-5α-pregnan-20-one] here?
**A.** particularly preferred on account of the activity shown in our tests

**Q.** With `CC(=O)[C@H]1CC[C@H]2[C@@H]3CC[C@H]4C[C@H](O)CC[C@]4(C)[C@H]3[C@@H](OC(=O)CNCC(C)(C)C)C[C@]12C` [Example 34, 11β-N-2',2'-dimethylpropylaminoacetoxy-3α-hydroxy-5α-pregnan-20-one] as the molecule, how does the “activity shown in our tests” value [1] read?
**A.** particularly preferred on account of the activity shown in our tests

**Q.** For `CCCCN(CC)CC(=O)O[C@H]1C[C@]2(C)[C@@H](C(C)=O)CC[C@H]2[C@@H]2CC[C@H]3C[C@H](O)CC[C@]3(C)[C@H]21` [Example 115, 11β-(N-Butyl-N-ethylaminoacetoxy)-3α-hydroxy-5α-pregnan-20-one], which “activity shown in our tests” value ([1]; listed as Compound No. 12) is on record?
**A.** especially preferred

**Q.** For `CCCCN(C)CC(=O)O[C@H]1C[C@]2(C)[C@@H](C(C)=O)CC[C@H]2[C@@H]2CC[C@H]3C[C@H](O)CC[C@]3(C)[C@H]21` [Example 111, 11β-(N-Butyl-N-methylaminoacetoxy)-3α-hydroxy-5α-pregnan-20-one], which “activity shown in our tests” value ([1]; listed as Compound No. 10) is on record?
**A.** especially preferred

**Q.** For `CCCN(CCC)CC(=O)O[C@H]1C[C@]2(C)[C@@H](C(C)=O)CC[C@H]2[C@@H]2CC[C@H]3C[C@H](O)[C@@H](OCC)C[C@]3(C)[C@H]21` [Example 120], which Dissolved aminoester [2, 3] is on record?
**A.** 87 mg

**Q.** What about the pH (pH of the salt solutions; [4]) of the same molecule?
**A.** 3.5

**Q.** For `CCO[C@H]1C[C@@]2(C)[C@@H](CC[C@@H]3[C@@H]2[C@@H](OC(=O)CN(CC)CC)C[C@]2(C)[C@@H](C(C)=O)CC[C@@H]32)C[C@@H]1O` [Example 101, 2β-Ethoxy-11β-diethylaminoacetoxy-3α-hydroxy-5α-pregnan-20-one], which “activity shown in our tests” value ([1]; listed as Compound No. 6) is on record?
**A.** especially preferred

**Q.** For `CCN(CC)CC(=O)OC1CC2(C)C(C(C)=O)CCC2C2CCC3CC(O)C(C)CC3(C)C12` (stereo not drawn) [Example 176], which Dissolved aminoester [2, 5] is on record?
**A.** 103 mg

**Q.** And the pH (pH of the salt solutions; [4])?
**A.** 3.7

**Q.** With `CC(=O)[C@H]1CC[C@H]2[C@@H]3CC[C@H]4C[C@H](O)CC[C@]4(C)[C@H]3[C@@H](OC(=O)CN3CC4CCC(CC4)C3)C[C@]12C` [Example 160] as the molecule, how does the Dissolved aminoester ([2]; method E: as C with further acid, WT. of solution Ex. 160: 6.12, 161: 7.8, 203: 12.7, 212: 12.125, 220: 10 g) read?
**A.** 80.6 mg

**Q.** And the pH (pH of the salt solutions; [4])?
**A.** 2.6

**Q.** For `CCN(CC)CC(=O)O[C@H]1C[C@]2(C)[C@@H](C(C)=O)CC[C@H]2[C@@H]2CC[C@H]3C[C@H](O)C=C[C@]3(C)[C@H]21` [Example 211], which Dissolved aminoester [2, 6] is on record?
**A.** 94 mg

**Q.** What about the pH (pH of the salt solutions; [4]) of the same molecule?
**A.** 3.2

**Q.** With `CCN(CC)CC(=O)O[C@H]1C[C@]2(C)[C@@H](C(C)=O)CC[C@H]2[C@@H]2CC[C@H]3C[C@](C)(O)CC[C@]3(C)[C@H]21` [Example 131] as the molecule, how does the Dissolved aminoester [2, 5] read?
**A.** 100 mg

**Q.** And the pH (pH of the salt solutions; [4])?
**A.** 3.55

**Q.** What does the source list for `CCOC1CC2(C)C(CCC3C4CCC(C(C)=O)C4(C)CC(OC(=O)CN4CCC(C)CC4)C32)CC1O` (stereo not drawn) [Example 164]?
**A.** Dissolved aminoester [2, 5]: 103.5 mg; pH (pH of the salt solutions; [4]): 3.72

**Q.** Which “concentration of aqueous solution of the citrate” value ([2]; citric acid monohydrate in water, filtered solution) does the source give for `CC(=O)[C@H]1CC[C@H]2[C@@H]3CC[C@H]4C[C@H](O)CC[C@@H]4[C@H]3[C@@H](OC(=O)CN3CCC(C)CC3)C[C@]12C` [Example 229 citrate salt] here?
**A.** 10 mg/mL

**Q.** What about the pH (pH of the salt solutions; aqueous solution of the citrate, filtered, 9.5-10 mg/ml) of the same molecule?
**A.** 3.73

**Q.** For `CC(=O)[C@H]1CC[C@H]2[C@@H]3CC[C@H]4C[C@H](O)CC[C@]4(C)[C@H]3[C@@H](OC(=O)CN3CCCCCCC3)C[C@]12C` [Example 128], which Dissolved aminoester [2, 7] is on record?
**A.** 68 mg

**Q.** And the pH (pH of the salt solutions; [4])?
**A.** 2.65

**Q.** Which results are given for `CC(=O)[C@H]1CC[C@H]2[C@@H]3CC[C@H]4C[C@H](O)CC[C@]4(C)[C@H]3[C@@H](OC(=O)CN(C)C)C[C@]12C` [Example 151]?
**A.** Dissolved aminoester [2, 5]: 100 mg; pH (pH of the salt solutions; [4]): 3.6

**Q.** Which results are given for `CCCN(CCC)CC(=O)O[C@H]1C[C@]2(C)[C@@H](C(C)=O)CC[C@H]2[C@@H]2CC[C@H]3C[C@H](O)CC[C@]3(C)[C@H]21` [Example 217]?
**A.** Dissolved aminoester [2, 3]: 76 mg; pH (pH of the salt solutions; [4]): 3.53

**Q.** Which results are given for `CCCN(CCC)CC(=O)O[C@H]1C[C@]2(C)[C@@H](C(C)=O)CC[C@H]2[C@@H]2CC[C@H]3C[C@H](O)CC[C@]3(C)[C@H]21` [Example 218]?
**A.** Dissolved aminoester ([2]; method C, 0.9% w/v saline in place of water, WT. of solution 95 g): 951 mg; pH (pH of the salt solutions; solution of the salt in saline, before any adjustment): 3.38

**Q.** Which results are given for `CCN(CC)CC(=O)O[C@H]1C[C@]2(C)[C@@H](C(C)=O)CC[C@H]2[C@@H]2CC[C@H]3C[C@H](O)CC[C@]3(C)[C@H]21` [Example 152]?
**A.** Dissolved aminoester [2, 3]: 55.95 mg; pH (pH of the salt solutions; [4]): 3.6

**Q.** What does the source list for `CC(=O)[C@H]1CC[C@H]2[C@@H]3CC[C@H]4C[C@H](O)CC[C@]4(C)[C@H]3[C@@H](OC(=O)CN(C)[C@H](C)CC(C)C)C[C@]12C` [Example 198]?
**A.** Dissolved aminoester [2, 6]: 90 mg; pH (pH of the salt solutions; [4]): 3.62

**Q.** Which Dissolved aminoester [2, 7] does the source give for `CC(=O)[C@H]1CC[C@H]2[C@@H]3CC[C@H]4C[C@H](O)CC[C@]4(C)[C@H]3[C@@H](OC(=O)CNCC(C)(C)C)C[C@]12C` [Example 142] here?
**A.** 92.3 mg

**Q.** And the pH (pH of the salt solutions; [4])?
**A.** 3.12

**Q.** For `CCCC(C)N(C)CC(=O)O[C@H]1C[C@]2(C)[C@@H](C(C)=O)CC[C@H]2[C@@H]2CC[C@H]3C[C@H](O)CC[C@]3(C)[C@H]21` (stereo partly drawn) [Example 187], which Dissolved aminoester [2, 5] is on record?
**A.** 95 mg

**Q.** What about the pH (pH of the salt solutions; [4]) of the same molecule?
**A.** 3.63
